Measured values taken from patent US10358449B2, “Xanthine derivative” (priority 2015, dated 2019).
Read-outs that look alike come from different tables or passages of the source. Marks after values point to notes of the source that are not given here.

Experiments:
[1] = biological target: humanized recombinant DPP-IV (Homo sapiens (Human), UniProt P27487); experiment: DPP-IV activity inhibition test in vitro (DPPIV-Glo luminescence); type: biochemical
Description: (1) DPP-IV Activity Inhibition Tests In Vitro
DPP-IV could hydrolyze Gly-Pro-Aminoluciferin at room temperature to generate Aminoluciferin, which could produce “glow type” luminescent signals in a luciferase reaction system provided by a DPPIV-Glo™ protease test kit, and the strength of the luminescent signals was in direct proportion to the enzyme activity of DPP-IV.
2.1 humanized recombinant DPP-IV: SIGMA product, article number D3446-10UG.
2.2 DPPIV-Glo™ protease detection kit: Promega product, article number G8351.
3.2 Diluting dipeptidyl peptidase IV (Sigma) to 0.2 ng/ml solution with 10 mM Tris-HCl (pH 8.0), adding the samples to be detected in, per well 25 μl. […] Experimental Results

[2] = tested on: diabetic mice (B6.BKS(D)-Leprdb/JNju); experiment: Glucose tolerance test of diabetic mice (Table 5); type: in vivo, mouse; parameters: AUC0-120 min: unit not given beside the values
Description: 2. Experimental method: normal mice, obese mice and diabetic mice were used for studying glucose tolerance tests Experimental process of OGTT (Oral Glucose Tolerance Test): fasting for 6 hours before the test begins, 60 min after drug administration, glucose was administrated by gavage (drug concentration 0.6 mg/ml, administration volume 5 ml/kg) (2 g/kg glucose was administrated to diabetic mice; 2 g/kg glucose was administrated to obese mice; and 5 g/kg glucose was administrated to normal mice), blood glucose values at 0 min, 15 min, 30 min, 45 min, 60 min and 120 min are respectively determined after glucose administration, […]

CYP2C19 = CYP2C19 (Homo sapiens (Human), UniProt P33261); experiment: biochemical; type: in vitro ADME
Description: (§1) 1. Test method: human liver microsomes were used to carry out inhibition activity test of the compounds to CYP enzyme. With the system for incubating human liver microsomes in vitro, the content variation of phenacetin, diclofenac, S-mephenytoin, dextromethorphan and midazolam, which were substrates of human liver microsomes CYP1A2, CYP2C9, CYP2C19, CYP2D6, CYP3A4, were measured simultaneously by cocktail probe drug method (which is a disclosed technology), the effects of TSL-0319 under different concentrations on activity of human liver microsomes CYP1A2, CYP2C9, CYP2C19, CYP2D6, CYP3A4 subtypes are evaluated and relevant IC50 was measured.

CYP2C9 = CYP2C9 (Homo sapiens (Human), UniProt P11712); experiment: biochemical; type: in vitro ADME
Description: as §1

CYP2D6 = CYP2D6 (Homo sapiens (Human), UniProt P10635); experiment: biochemical; type: in vitro ADME
Description: as §1

CYP3A4 = CYP3A4 (Homo sapiens (Human), UniProt P08684); experiment: biochemical; type: in vitro ADME
Description: as §1

Chain of CYP2D6 (P10635 whole entry): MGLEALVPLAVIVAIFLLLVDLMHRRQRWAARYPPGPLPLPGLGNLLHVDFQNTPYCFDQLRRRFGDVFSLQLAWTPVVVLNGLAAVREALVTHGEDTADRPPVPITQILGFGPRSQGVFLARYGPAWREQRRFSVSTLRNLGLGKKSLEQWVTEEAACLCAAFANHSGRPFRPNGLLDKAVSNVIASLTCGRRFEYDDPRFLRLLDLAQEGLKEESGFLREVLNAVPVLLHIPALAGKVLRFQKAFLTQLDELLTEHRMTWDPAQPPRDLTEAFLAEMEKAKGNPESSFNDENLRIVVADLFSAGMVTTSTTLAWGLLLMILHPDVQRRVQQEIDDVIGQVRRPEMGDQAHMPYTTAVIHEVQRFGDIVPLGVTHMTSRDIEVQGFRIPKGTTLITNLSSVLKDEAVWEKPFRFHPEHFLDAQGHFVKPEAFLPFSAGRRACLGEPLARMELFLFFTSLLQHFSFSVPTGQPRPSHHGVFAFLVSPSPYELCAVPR
Chain of humanized recombinant DPP-IV (P27487 whole entry): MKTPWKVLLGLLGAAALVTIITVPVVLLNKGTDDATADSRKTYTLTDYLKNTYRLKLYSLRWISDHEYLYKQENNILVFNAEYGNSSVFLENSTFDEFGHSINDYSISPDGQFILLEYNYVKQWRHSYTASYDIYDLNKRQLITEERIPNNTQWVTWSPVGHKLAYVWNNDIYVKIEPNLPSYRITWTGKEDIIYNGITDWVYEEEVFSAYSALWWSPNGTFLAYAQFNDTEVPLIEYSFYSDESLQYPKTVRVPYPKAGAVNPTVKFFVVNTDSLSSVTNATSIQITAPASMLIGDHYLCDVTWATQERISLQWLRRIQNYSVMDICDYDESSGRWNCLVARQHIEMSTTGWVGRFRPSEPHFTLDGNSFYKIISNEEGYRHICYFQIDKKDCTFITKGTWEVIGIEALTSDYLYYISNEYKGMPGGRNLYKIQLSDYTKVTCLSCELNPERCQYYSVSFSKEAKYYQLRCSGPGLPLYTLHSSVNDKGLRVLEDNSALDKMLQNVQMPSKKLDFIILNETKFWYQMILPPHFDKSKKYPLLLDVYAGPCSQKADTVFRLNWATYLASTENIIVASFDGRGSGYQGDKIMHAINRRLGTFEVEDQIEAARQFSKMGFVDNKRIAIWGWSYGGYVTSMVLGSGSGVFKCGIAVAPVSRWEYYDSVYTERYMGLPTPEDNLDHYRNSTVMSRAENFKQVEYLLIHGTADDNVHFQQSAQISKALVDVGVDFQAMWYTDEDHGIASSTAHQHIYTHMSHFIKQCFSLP
Chain of CYP2C19 (P33261 whole entry): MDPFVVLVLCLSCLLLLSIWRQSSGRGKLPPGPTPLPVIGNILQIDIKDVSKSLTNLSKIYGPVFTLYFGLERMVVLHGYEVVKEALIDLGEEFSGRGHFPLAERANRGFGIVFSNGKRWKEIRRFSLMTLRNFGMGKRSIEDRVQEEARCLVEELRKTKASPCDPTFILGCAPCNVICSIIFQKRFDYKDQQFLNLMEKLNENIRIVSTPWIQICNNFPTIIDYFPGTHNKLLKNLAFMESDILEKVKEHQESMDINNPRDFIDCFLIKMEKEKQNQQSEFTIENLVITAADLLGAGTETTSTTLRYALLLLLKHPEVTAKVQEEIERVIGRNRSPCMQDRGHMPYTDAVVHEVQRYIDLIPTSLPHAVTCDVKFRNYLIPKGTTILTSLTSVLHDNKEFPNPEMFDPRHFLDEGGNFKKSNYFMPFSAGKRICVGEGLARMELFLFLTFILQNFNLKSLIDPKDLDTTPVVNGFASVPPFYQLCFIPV
Chain of CYP2C9 (P11712 whole entry): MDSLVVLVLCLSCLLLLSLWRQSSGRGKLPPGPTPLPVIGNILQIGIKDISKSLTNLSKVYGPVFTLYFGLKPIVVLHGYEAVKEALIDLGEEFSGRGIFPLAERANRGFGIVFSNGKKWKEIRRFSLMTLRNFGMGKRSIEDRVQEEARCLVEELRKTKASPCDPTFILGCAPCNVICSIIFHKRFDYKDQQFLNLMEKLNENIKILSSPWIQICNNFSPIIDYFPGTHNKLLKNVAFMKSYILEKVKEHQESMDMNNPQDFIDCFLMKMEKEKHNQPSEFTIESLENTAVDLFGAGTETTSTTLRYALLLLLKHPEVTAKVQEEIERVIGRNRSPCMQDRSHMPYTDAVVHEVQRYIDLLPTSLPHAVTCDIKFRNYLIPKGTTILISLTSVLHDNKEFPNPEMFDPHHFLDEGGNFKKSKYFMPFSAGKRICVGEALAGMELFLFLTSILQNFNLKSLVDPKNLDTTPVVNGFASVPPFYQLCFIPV
Chain of CYP3A4 (P08684 whole entry): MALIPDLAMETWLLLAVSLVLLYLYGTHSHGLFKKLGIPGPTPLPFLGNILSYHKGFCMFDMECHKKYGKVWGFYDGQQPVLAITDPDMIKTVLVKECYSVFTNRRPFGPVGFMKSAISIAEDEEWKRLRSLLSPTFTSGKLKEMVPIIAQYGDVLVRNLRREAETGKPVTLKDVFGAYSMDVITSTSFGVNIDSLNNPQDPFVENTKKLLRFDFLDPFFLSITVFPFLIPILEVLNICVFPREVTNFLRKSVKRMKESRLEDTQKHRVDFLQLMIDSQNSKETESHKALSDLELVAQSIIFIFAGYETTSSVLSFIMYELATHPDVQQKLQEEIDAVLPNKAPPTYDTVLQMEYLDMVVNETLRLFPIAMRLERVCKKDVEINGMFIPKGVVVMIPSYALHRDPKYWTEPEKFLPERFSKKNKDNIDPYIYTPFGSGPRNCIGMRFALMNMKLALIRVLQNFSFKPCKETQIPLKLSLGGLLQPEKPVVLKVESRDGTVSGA

## CC#CCn1c(N2CCC[C@@H](N)C2)nc2c1c(=O)n(Cc1nccnc1C#N)c(=O)n2C [Compound I-3, 1-[(3-cyano-pyrazine-2-yl)methyl]-3-methyl-7-(2-butyne-1-yl)-8-[(R)-3-amino-piperidine-1-yl]-xanthine]
[1]; DPP-IV, Table 1, read-out: IC50
  IC50: 80 pM
[1]; Table 2, read-out: DPP4 IC50
  IC50: 80 pM
[1]; in words
  DPP-IV activity compared with linagliptin: better activity than linagliptin
[2]; Table 5 mice (diabetic), in words
  hypoglycemic effect: good hypoglycemic effect
[2]; diabetic mice B6.BKS(D)-Leprdb/JNju, drug at -60 min (0.6 mg/ml, 5 ml/kg), 2 g/kg glucose at 0 min
  Blood glucose concentration 0 min: 11.84 mmol/L
[2]; diabetic mice, 15 min after glucose
  Blood glucose concentration 15 min: 32.23 mmol/L
[2]; diabetic mice, 30 min after glucose
  Blood glucose concentration 30 min: 22.80* mmol/L
[2]; diabetic mice, 45 min after glucose
  Blood glucose concentration 45 min: 15.70*** mmol/L
[2]; diabetic mice, 60 min after glucose
  Blood glucose concentration 60 min: 13.80*** mmol/L
[2]; diabetic mice, 120 min after glucose
  Blood glucose concentration 120 min: 8.75** mmol/L
[2]; diabetic mice, blood glucose AUC
  AUC0-120 min: 1930**
CYP2C19
  IC50: > 50 µM
CYP2C19; human, microsomes
  inhibition at 0.05 µM: 0%
  inhibition at 1.5 µM: 3.3%
  inhibition at 5 µM: 8.2%
  inhibition at 15 µM: 14%
  inhibition at 50 µM: 2.9%
CYP2C9
  IC50: > 50 µM
CYP2C9; human, microsomes
  inhibition at 0.05 µM: 0%
  inhibition at 0.15 µM: 0%
  inhibition at 0.5 µM: 3.2%
  inhibition at 1.5 µM: 5.7%
  inhibition at 5 µM: 10.5%
  inhibition at 15 µM: 12.1%
  inhibition at 50 µM: 13.9%
CYP2D6
  IC50: > 50 µM
CYP2D6; human, microsomes
  inhibition at 0.05 µM: 0%
  inhibition at 0.15 µM: 0%
  inhibition at 0.5 µM: 0%
  inhibition at 1.5 µM: 0%
  inhibition at 5 µM: 0%
  inhibition at 15 µM: 3%
  inhibition at 50 µM: 14.6%
CYP3A4
  IC50: > 50 µM
CYP3A4; human, microsomes
  inhibition at 0.05 µM: 0%
  inhibition at 0.15 µM: 0%
  inhibition at 0.5 µM: 4%
  inhibition at 1.5 µM: 4.4%
  inhibition at 5 µM: 8.7%
  inhibition at 15 µM: 17.9%
  inhibition at 50 µM: 44.6%
